{
  "source": "paper PMC6743424",
  "about": "“Phenolic acid phenethylesters and their corresponding ketones: Inhibition of 5‐lipoxygenase and stability in human blood and HepaRG cells” (Pharmacology Research & Perspectives, 2019)",
  "origin": "cited, not measured here",
  "molecular_target": "T1, 5‐LO (Homo sapiens, UniProt P09917)",
  "T1 sequence (P09917 1-674)": "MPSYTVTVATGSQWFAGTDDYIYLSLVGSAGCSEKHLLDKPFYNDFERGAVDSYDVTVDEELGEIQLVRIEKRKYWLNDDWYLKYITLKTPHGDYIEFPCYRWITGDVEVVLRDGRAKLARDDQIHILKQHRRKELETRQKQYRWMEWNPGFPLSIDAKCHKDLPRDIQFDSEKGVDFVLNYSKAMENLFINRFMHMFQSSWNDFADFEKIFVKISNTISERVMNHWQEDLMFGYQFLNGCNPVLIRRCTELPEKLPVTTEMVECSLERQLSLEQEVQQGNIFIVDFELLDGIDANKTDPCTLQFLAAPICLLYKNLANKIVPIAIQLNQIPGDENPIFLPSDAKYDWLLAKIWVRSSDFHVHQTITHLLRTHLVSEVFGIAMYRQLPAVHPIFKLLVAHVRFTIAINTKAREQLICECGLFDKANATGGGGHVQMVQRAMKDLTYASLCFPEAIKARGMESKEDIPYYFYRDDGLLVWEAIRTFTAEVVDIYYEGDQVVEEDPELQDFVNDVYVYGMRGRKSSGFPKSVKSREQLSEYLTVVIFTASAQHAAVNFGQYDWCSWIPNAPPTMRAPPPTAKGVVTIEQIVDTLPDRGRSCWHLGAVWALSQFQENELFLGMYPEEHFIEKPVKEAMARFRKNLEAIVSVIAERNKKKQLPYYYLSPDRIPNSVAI",
  "set-up": "endogenous in cells; host or cells: human polymorphonuclear leukocytes isolated from heparinized blood; method as in PMID 22347509, PMID 28680195",
  "conditions": "read-out: IC50 of LT biosynthesis in whole blood; cited from earlier work",
  "data": [
    {"smiles": "O=C(/C=C/c1ccc(O)c(O)c1)OCCc1ccccc1", "note": "[CAPE (2), caffeic acid phenethyl ester, reference compound]", "values": [
      {"measurement": "IC50", "result": 1800, "unit": "nM"}
    ]}
  ]
}
